# Experimental data from PubChem BioAssay AID1117361 (Southern Research Institute, 2015).
# Target: Protein Tat (Human immunodeficiency virus type 1 group M subtype B (isolate HXB2)) (UniProt P04608)
# Test: HIV-1 Tat–TAR interaction blockers – biochemical, fluorescence polarization, FAM-labeled TAR RNA, counter-screen for Vif-APOBEC3G degradation inhibitor project, dose response (AID 1117361)
# Conditions: Tat-TAR RNA binding
# Protein Tat (Human immunodeficiency virus type 1 group M subtype B (isolate HXB2)), sequence (P04608 whole entry, looked up): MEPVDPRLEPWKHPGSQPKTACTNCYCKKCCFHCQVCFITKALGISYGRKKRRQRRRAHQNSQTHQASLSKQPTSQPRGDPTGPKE
row,SMILES,IC50 [µM]
1,O=C1C2C3C=CC(C3)C2C(=O)N1CNc1ccc(O)cc1 (configuration not stated),25.7
2,CC(=O)Nc1ccc(S(=O)(=O)Nc2nc3ccccc3nc2Nc2ccc(C(=O)O)c(O)c2)cc1,32.2
3,O=C1CC(Nc2ccc(N3CCOCC3)cc2)C(=O)N1c1ccccc1F (configuration not stated),12.9
4,COc1ccc(NC(=S)NCCc2ccccc2OC)c(OC)c1,13.7
5,N=C1/C(=C/c2ccc(Br)o2)C(=O)N=C2SC(CC(=O)N3CCCC3)=NN12,53.7
6,COc1ccccc1N1C(=O)NC(=O)/C(=C/c2ccc([N+](=O)[O-])s2)C1=O,17.6
7,C=CC1=C(C(=O)O)N2C(=O)C(NC(=O)Cc3ccccc3)C2SC1 (configuration not stated),64.2
8,O=c1cc(-c2ccccc2Cl)c2c([nH]1)CCC2,18.8
9,CCNc1ccc(Br)cc(C(=O)/C=C/c2ccc(Cl)cc2)c1=O,12.5
10,Cc1ccc(/C=c2\sc3nc(-c4cccs4)nn3c2=O)o1,13.6
11,CCN(CC)c1ccc2oc(=O)c(C)nc2c1,20.2
12,CC(=O)C1=C(C)NC(C)=C(C(C)=O)C1c1cccs1,91.4
13,CCOc1ccccc1C(O)C1=CC(=O)c2ccccc2C1=O (configuration not stated),77.7
14,O=C(O)C1Nc2c(O)cccc2C2C=CCC12 (configuration not stated),0.703
15,CCOc1ccc2[nH]c(=O)c(CN(Cc3nnnn3Cc3ccco3)C3CCCCC3)cc2c1,24.9
16,O=C1CCCC(O)=C1N=Nc1ccc(S(=O)(=O)N2CCOCC2)cc1,37.6
17,O=C(O)C1=NN(c2cc(Cl)c(S(=O)(=O)O)cc2Cl)C(=O)C1,30.9
18,Cc1ccc(NC(=O)CN(C)C(=O)c2cccc(-n3cccc3)c2)cc1,38
19,O=C(O)/C(=C/c1ccco1)NC(=O)c1ccccc1,15.3
20,Oc1ccc(-c2cn3c(n2)SCC3)cc1O,71.9
21,CC(=C\c1ccco1)/C=C1/SC(=S)N(CC(=O)O)C1=O,8.8
22,COc1ccc(Nc2ccc(OC)cc2)cc1,23.2
23,O=C1C=CC(=O)c2c(O)c(CO)c(CO)c(O)c21,3.48
24,CCOC(=O)C1CCCN(C(=O)c2ccc(CNc3c(N4CCC(C)CC4)c(=O)c3=O)cc2)C1 (configuration not stated),65.3

row,SMILES,IC50 [µM]
1,CC1=CC2(O)OCCN(CCO)C2=CC1=O (configuration not stated),34.5
2,CCCOc1ccc(Cc2nn3c(=O)/c(=C/c4ccco4)sc3nc2=O)cc1,2.68
3,O=C1N=C(N2CCN(c3ccccc3)CC2)S/C1=C\c1ccco1,11.9
4,O=C(CSc1nnnn1-c1ccccc1)Nc1ncc2c(n1)CC(c1ccco1)CC2=O (configuration not stated),58.5
5,O=C(NC1CCCC1)c1ccc2nc(-c3ccco3)c(-c3ccco3)nc2c1,2.08
6,O=C(OC1CCCCC1)c1ccc2c(c1)C1C=CCC1C(C(=O)O)N2 (configuration not stated),2.26
7,Cc1cc(NC(=O)CCNS(=O)(=O)c2cc(Br)cnc2N)ccc1Br,93.7
8,CC(=O)Nc1cccc(Oc2ncnc3scc(-c4ccccc4)c23)c1,31
9,NC(=O)Cn1c(=O)n(Cc2ccco2)c(=O)c2c3c(sc21)CCCCC3,15.5
10,Oc1cccc(C=NCc2ccccc2)c1O,6.47
11,CCCC(=O)N(CCc1ccc(OC)cc1)Cc1nc2ccccc2c(=O)[nH]1,71.8
12,C/C(=C\C(=O)c1ccc(C)cc1)Nc1cccc(O)c1,10.4
13,Cc1cc(C(=O)CSc2nnnn2-c2ccccc2)c(C)n1CC1CCCO1 (configuration not stated),35
14,CC1C/C(=C/c2ccco2)C(=O)/C(=C/c2ccco2)C1 (configuration not stated),3.92
15,Cc1c(Cl)cccc1NS(=O)(=O)c1ccc2c(c1)C1C=CCC1C(c1ccc(C(=O)O)cc1)N2 (configuration not stated),8.54
16,O=C(NC1CCC(C(=O)O)CC1)OCc1ccccc1 (configuration not stated),79.8
17,O=C(/C=C/c1ccco1)N(c1ccccn1)c1ccccn1,7.9
18,O=C(O)c1ccc(-n2cccc2/C=C2/NC(=O)N(c3ccccc3)C2=O)cc1,15.7
19,O=C1/C(=C/c2ccco2)SC(=S)N1C1CCS(=O)(=O)C1 (configuration not stated),5.05
20,Cc1onc(-c2ccccc2Cl)c1C(=O)NCc1ccco1,6.65
21,O=C1CCCC(O)=C1N=Nc1cccc(C(=O)O)c1,13.7
22,Oc1ccccc1/C=N/c1c(-c2ccco2)nc2ccccn12,2.97
23,COc1ccc(C2=CC(c3ccc(Cl)cc3)n3cnnc3N2)cc1OC (configuration not stated),6.19
